Reference: ChEMBL document CHEMBL4190365, “Synthesis and antiproliferative properties of new hydrophilic esters of triterpenic acids” (Eur J Med Chem, 2017)

Columns and labels:
Assay type in all cases: functional, cell-based
CCRF-CEM = test: Cytotoxicity in human CEM cells assessed as reduction in cell viability incubated for 72 hrs by calcein AM cytotoxicity assay; settings: Homo sapiens, CCRF-CEM, 72 h
MCF7 = test: Cytotoxicity in human MCF7 cells assessed as reduction in cell viability incubated for 72 hrs by calcein AM cytotoxicity assay; settings: Homo sapiens, MCF7, 72 h
HeLa = test: Cytotoxicity in human HeLa cells assessed as reduction in cell viability incubated for 72 hrs by calcein AM cytotoxicity assay; settings: Homo sapiens, HeLa, 72 h
G-361 = test: Cytotoxicity in human G361 cells assessed as reduction in cell viability incubated for 72 hrs by calcein AM cytotoxicity assay; settings: Homo sapiens, G-361, 72 h
BJ = test: Cytotoxicity in human BJ cells assessed as reduction in cell viability incubated for 72 hrs by calcein AM cytotoxicity assay; settings: Homo sapiens, BJ, 72 h

CC(=O)OC[C@@]1(C(=O)OCCBr)CC[C@]2(C)[C@H](CC[C@@H]3[C@@]4(C)CC[C@H](OC(C)=O)C(C)(C)[C@@H]4CC[C@]32C)[C@@H]1O
IC50 (CCRF-CEM): > 50 µM | IC50 (MCF7): > 50 µM | IC50 (HeLa): > 50 µM | IC50 (G-361): > 50 µM | IC50 (BJ): > 50 µM

CC(=O)O[C@H]1CC[C@]2(C)[C@H]3CC[C@@H]4C5=C(C(C)C)C(=O)C(=O)[C@]5(C(=O)OCCN5CCOCC5)CC[C@@]4(C)[C@]3(C)CC[C@H]2C1(C)C
IC50 (CCRF-CEM): 8.1 µM | IC50 (MCF7): 18.3 µM | IC50 (HeLa): 5.5 µM | IC50 (G-361): 2.2 µM | IC50 (BJ): 25.3 µM

COCCOC(=O)[C@]12CC[C@@H](C(C)C)[C@@H]1[C@H]1CC[C@@H]3[C@@]4(C)CC[C@H](O)C(C)(C)[C@@H]4CC[C@@]3(C)[C@]1(C)CC2
IC50 (CCRF-CEM): 38.4 µM | IC50 (MCF7): 44.4 µM | IC50 (HeLa): 21.5 µM | IC50 (G-361): 38.6 µM | IC50 (BJ): 26.5 µM

CC(C)[C@@H]1CC[C@]2(C(=O)O[C@@H]3O[C@H](CO)[C@H](O)[C@H](O)[C@H]3O)CC[C@]3(C)[C@H](CC[C@@H]4[C@@]5(C)CC[C@H](O)C(C)(C)[C@@H]5CC[C@]43C)[C@@H]12
IC50 (CCRF-CEM): > 50 µM | IC50 (MCF7): > 50 µM | IC50 (HeLa): > 50 µM | IC50 (G-361): > 50 µM | IC50 (BJ): > 50 µM

COCCOCCOC(=O)[C@]12CC[C@@H](C(C)C)[C@@H]1[C@H]1CC[C@@H]3[C@@]4(C)CC[C@H](O)C(C)(C)[C@@H]4CC[C@@]3(C)[C@]1(C)CC2
IC50 (CCRF-CEM): 32.3 µM | IC50 (MCF7): 31.3 µM | IC50 (HeLa): 26.4 µM | IC50 (G-361): 24 µM | IC50 (BJ): 30.5 µM

CC(C)[C@@H]1CC[C@]2(C(=O)O[C@@H]3O[C@H](CO)[C@@H](O)[C@H](O)[C@H]3O)CC[C@]3(C)[C@H](CC[C@@H]4[C@@]5(C)CC[C@H](O)C(C)(C)[C@@H]5CC[C@]43C)[C@@H]12
IC50 (CCRF-CEM): > 50 µM | IC50 (MCF7): > 50 µM | IC50 (HeLa): > 50 µM | IC50 (G-361): > 50 µM | IC50 (BJ): > 50 µM

COCCOCCOC(=O)[C@]1(COC(C)=O)CC[C@]2(C)[C@H](CC[C@@H]3[C@@]4(C)CC[C@H](OC(C)=O)C(C)(C)[C@@H]4CC[C@]32C)C1=O
IC50 (CCRF-CEM): > 50 µM | IC50 (MCF7): > 50 µM | IC50 (HeLa): > 50 µM | IC50 (G-361): > 50 µM | IC50 (BJ): > 50 µM

CC(=O)O[C@H]1CC[C@]2(C)[C@H]3CC[C@@H]4C5=C(C(C)C)C(=O)C[C@]5(C(=O)OCC(=O)O)CC[C@@]4(C)[C@]3(C)CC[C@H]2C1(C)C
IC50 (CCRF-CEM): 24.2 µM | IC50 (MCF7): > 50 µM | IC50 (HeLa): 47.9 µM | IC50 (G-361): 45.6 µM | IC50 (BJ): > 50 µM

CC(=O)OC[C@@]1(C(=O)OCC(=O)O)CC[C@]2(C)[C@H](CC[C@@H]3[C@@]4(C)CC[C@H](OC(C)=O)C(C)(C)[C@@H]4CC[C@]32C)C1=O
IC50 (CCRF-CEM): 32.4 µM | IC50 (MCF7): > 50 µM | IC50 (HeLa): > 50 µM | IC50 (G-361): > 50 µM | IC50 (BJ): 7 µM

CC(C)[C@@H]1CC[C@]2(C(=O)OCCBr)CC[C@]3(C)[C@H](CC[C@@H]4[C@@]5(C)CC[C@H](O)C(C)(C)[C@@H]5CC[C@]43C)[C@@H]12
IC50 (CCRF-CEM): 35.4 µM | IC50 (MCF7): 45.9 µM | IC50 (HeLa): 21.3 µM | IC50 (G-361): 43.1 µM | IC50 (BJ): 36.7 µM

C=C(C)[C@@H]1CC[C@]2(C(=O)OCCOC)CC[C@]3(C)[C@H](CC[C@@H]4[C@@]5(C)CC[C@H](O)C(C)(C)[C@@H]5CC[C@]43C)[C@@H]12
IC50 (CCRF-CEM): 32.8 µM | IC50 (MCF7): 35.2 µM | IC50 (HeLa): 32.4 µM | IC50 (G-361): 30.3 µM | IC50 (BJ): 43.7 µM
